Data published in US8735584B2 (Merck Patent GmbH, priority 2008, dated 2014).

Target: T1, GST-Aurora A (Homo sapiens, UniProt O14965)
T1 construct: N-terminal GST fusion with full length Aurora A (1-403 amino acids); purchased Carna Biosciences 05-101
T1 sequence (O14965 1-403): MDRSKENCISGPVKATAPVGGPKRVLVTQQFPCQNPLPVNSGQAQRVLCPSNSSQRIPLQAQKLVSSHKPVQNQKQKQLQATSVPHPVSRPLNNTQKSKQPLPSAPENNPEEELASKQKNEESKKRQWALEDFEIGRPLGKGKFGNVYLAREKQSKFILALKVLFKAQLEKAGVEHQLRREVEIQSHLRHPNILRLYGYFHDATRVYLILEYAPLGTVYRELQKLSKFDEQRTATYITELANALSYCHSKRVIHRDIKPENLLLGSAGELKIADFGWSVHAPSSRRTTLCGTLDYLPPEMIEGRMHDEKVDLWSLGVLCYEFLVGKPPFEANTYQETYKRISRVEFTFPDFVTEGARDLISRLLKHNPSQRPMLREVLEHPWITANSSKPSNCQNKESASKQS
Experiment: Aurora A IC50, Caliper LC3000 mobility shift assay
Assay type: biochemical
Settings: LC3000 method; 15 uM ATP (the KM value); read-out: Aurora Kinase A Activity (IC50)
Protocol: The Aurora assays described here are performed on two Caliper Life Sciences systems: the LC3000 and the Desktop Profiler. These provide data on enzyme activity via measurement of the relative amounts of phosphorylated or unphosphorylated fluorescently labelled substrate peptide at the end of an enzymatic reaction. These different states of peptide are resolved by applying a potential difference across the sample. The presence of the charged phosphate group on the product (as opposed to the substrate) causes a different peptide mobility between the two peptides. This is visualized by excitation of the fluorescent label on the substrate and product peptides and represented as peaks within the analysis software.
In order to measure inhibitor activity of Aurora A inhibitors in the Caliper Life Sciences LC3000, a TTP Mosquito liquid handling instrument is used to place 0.25 ul of the appropriate concentration of inhibitor in 100% DMSO (for a dose response curve calculation) into each well of a 384-well plate. To this reaction components are added to a final volume of 25 ul: • 0.067 ng/ul GST-Aurora A (Carna Biosciences 05-101. N-terminal GST fusion with full length Aurora A (1-403 amino acids), accession number NP 940835.1). • 15 uM ATP (Fluke, 02055) • 1 mM DTT (Sigma, D0632) • 1 mM MgCl2 (Sigma, M1028) • 1 uM substrate peptide (sequence FITC-LRRASLG-(CONH2), synthesized by Tufts Peptide Synthesis service. • 100 mM HEPES pH 7.5 (Calbiochem, 391338) • 0.015% Brij-35 (Sigma, B4184)
The reaction is incubated for 90 min at 25 C, and then stopped by the addition of 70 ul of Stop buffer (100 mM HEPES pH 7.5, 0.015% Brij-35, 10 mM EDTA (Sigma, E7889)).
The plate is read on a Caliper LC3000 in an Off-Chip mobility shift assay format, using the following parameters for a 12-sipper chip: screening pressure—1.8 psi, upstream voltage—2700, downstream voltage—1000. These conditions cause unphosphorylated substrate and phosphorylated product peptide to resolve as separate peaks allowing direct measurement of percentage of conversion of substrate to product. The percent conversion can be plotted against concentration of inhibitor to produce a sigmoidal dose response curve, from which an 1050 can be calculated using XLFit for Microsoft Excel.
In the desired wells of a 384-well plate, Aurora A (0.067 ng/ul) was incubated with 15 uM ATP (the KM value), 1 mM DTT, 1 mM MgCl2, and 1 uM peptide substrate (sequence FITC-LRRASLG-(CONH2), FITC=fluorescein isothiocyanate) in 100 mM HEPES pH 7.5 and 0.015% Brij-35 buffer. The reaction was incubated for 90 min at 25 C, and then stopped by the addition of 45 ul of Stop buffer (100 mM HEPES ph 7.5, 0.015% Brij-35, 10 mM EDTA).
The plate was read in a Caliper LC 3000 in an Off-Chip mobility shift assay format, using the following parameters: screening pressure—1.8 psi, upstream voltage—2700, downstream voltage—1000. These conditions cause unphosphorylated substrate peptide to resolve as a peak before that of the phosphorylated peptide product.
In the following table “+” means >100 nM, “++” means 11-100 nM, and “+++” means <11 nM.

Structure (SMILES): CC(=O)Nc1ccc(C#Cc2ccnc3[nH]c(=O)c4ccccc4c23)cc1 [Compound 265]
- IC50: > 100 nM

Structure (SMILES): COC(=O)c1ccc2c(c1)c(=O)[nH]c1nccc(Nc3ccc(NC(=O)c4ccccc4)cc3)c12 [Compound 267, Methyl 1-(4-benzamidophenylamino)-6-oxo-5,6-dihydrobenzo[c][1,8]naphthyridine-8-carboxylate]
- IC50: < 11 nM

Structure (SMILES): O=C(O)c1ccc2c(c1)c(=O)[nH]c1nccc(Nc3ccc(NC(=O)c4ccccc4)cc3)c12 [Compound 268, 1-(4-Benzamidophenylamino)-6-oxo-5,6-dihydrobenzo[c][1,8]naphthyridine-8-carboxylic acid]
- IC50: < 11 nM

Structure (SMILES): CN1CCN(C(=O)c2ccc3c(c2)c(=O)[nH]c2nccc(Nc4ccc(NC(=O)c5ccccc5)cc4)c23)CC1 [Compound 269, N-(4-(8-(4-Methylpiperazine-1-carbonyl)-6-oxo-5,6-dihydrobenzo[c][1,8]naphthyridin-1-ylamino)phenyl)benzamide]
- IC50: 11 to 100 nM

Structure (SMILES): CN(C)CCNC(=O)c1ccc2c(c1)c(=O)[nH]c1nccc(Nc3ccc(NC(=O)c4ccccc4)cc3)c12 [Compound 270, 1-(4-Benzamidophenylamino)-N-(2-(dimethylamino)ethyl)-6-oxo-5,6-dihydrobenzo[c][1,8]naphthyridine-8-carboxamide]
- IC50: 11 to 100 nM

Structure (SMILES): CN1CCN(CCNC(=O)c2ccc3c(c2)c(=O)[nH]c2nccc(Nc4ccc(NC(=O)c5ccccc5)cc4)c23)CC1 [Compound 271, 1-(4-Benzamidophenylamino)-N-(2-(4-methylpiperazin-1-yl)ethyl)-6-oxo-5,6-dihydrobenzo[c][1,8]naphthyridine-8-carboxamide]
- IC50: 11 to 100 nM

Structure (SMILES): O=C(NCC(O)CO)c1ccc2c(c1)c(=O)[nH]c1nccc(Nc3ccc(NC(=O)c4ccccc4)cc3)c12 (stereo not shown) [Compound 272, 1-(4-Benzamidophenylamino)-N-(2,3-dihydroxypropyl)-6-oxo-5,6-dihydrobenzo[c][1,8]naphthyridine-8-carboxamide]
- IC50: < 11 nM

Structure (SMILES): CCN(CCO)Cc1ccc2c(c1)c(=O)[nH]c1nccc(Nc3ccc(NC(=O)c4ccccc4)cc3)c12 [Compound 274, N-(4-(8-((Ethyl(2-hydroxyethyl)amino)methyl)-6-oxo-5,6-dihydrobenzo[c][1,8]naphthyridin-1-ylamino)phenyl)benzamide]
- IC50: 11 to 100 nM

Structure (SMILES): O=C(Nc1ccc(Nc2ccnc3[nH]c(=O)c4cc(Cl)ccc4c23)cc1)c1ccccc1 [Compound 275, N-(4-(8-Chloro-6-oxo-5,6-dihydrobenzo[c][1,8]naphthyridin-1-ylamino)phenyl)benzamide]
- IC50: 11 to 100 nM

Structure (SMILES): CN1CCN(c2ccc3c(c2)c(=O)[nH]c2nccc(Nc4ccc(NC(=O)c5ccccc5)cc4)c23)CC1 [Compound 276, N-(4-(8-(4-Methylpiperazin-1-yl)-6-oxo-5,6-dihydrobenzo[c][1,8]naphthyridin-1-ylamino)phenyl)benzamide]
- IC50: 11 to 100 nM

Structure (SMILES): O=C(Nc1ccc(Nc2ccnc3[nH]c(=O)c4ccc(CO)cc4c23)cc1)c1ccccc1 [Compound 279, N-(4-(9-(Hydroxymethyl)-6-oxo-5,6-dihydrobenzo[c][1,8]naphthyridin-1-ylamino)phenyl)benzamide]
- IC50: < 11 nM

Structure (SMILES): NCc1ccc2c(=O)[nH]c3nccc(Nc4ccc(NC(=O)c5ccccc5)cc4)c3c2c1 [Compound 280, N-(4-(9-(Aminomethyl)-6-oxo-5,6-dihydrobenzo[c][1,8]naphthyridin-1-ylamino)phenyl)benzamide]
- IC50: < 11 nM

Structure (SMILES): O=C(O)c1ccc2c(=O)[nH]c3nccc(Nc4ccc(NC(=O)c5ccccc5)cc4)c3c2c1 [Compound 281, 1-(4-Benzamidophenylamino)-6-oxo-5,6-dihydrobenzo[c][1,8]naphthyridine-9-carboxylic acid]
- IC50: < 11 nM

Structure (SMILES): NC(=O)c1ccc2c(=O)[nH]c3nccc(Nc4ccc(NC(=O)c5ccccc5)cc4)c3c2c1 [Compound 282, 1-(4-benzamidophenylamino)-6-oxo-5,6-dihydrobenzo[c][1,8]naphthyridine-9-carboxamide]
- IC50: < 11 nM

Structure (SMILES): CN(C)C(=O)c1ccc2c(=O)[nH]c3nccc(Nc4ccc(NC(=O)c5ccccc5)cc4)c3c2c1 [Compound 283, 1-(4-Benzamidophenylamino)-N,N-dimethyl-6-oxo-5,6-dihydrobenzo[c][1,8]naphthyridine-9-carboxamide]
- IC50: 11 to 100 nM

Structure (SMILES): NCCNC(=O)c1ccc2c(=O)[nH]c3nccc(Nc4ccc(NC(=O)c5ccccc5)cc4)c3c2c1 [Compound 284, N-(2-Aminoethyl)-1-(4-benzamidophenylamino)-6-oxo-5,6-dihydrobenzo[c][1,8]naphthyridine-9-carboxamide]
- IC50: < 11 nM

Structure (SMILES): CN(C)CCNC(=O)c1ccc2c(=O)[nH]c3nccc(Nc4ccc(NC(=O)c5ccccc5)cc4)c3c2c1 [Compound 285, 1-(4-benzamidophenylamino)-N-(2-(dimethylamino)ethyl)-6-oxo-5,6-dihydrobenzo[c][1,8]naphthyridine-9-carboxamide]
- IC50: < 11 nM

Structure (SMILES): CN1CCN(CCNC(=O)c2ccc3c(=O)[nH]c4nccc(Nc5ccc(NC(=O)c6ccccc6)cc5)c4c3c2)CC1 [Compound 286, 1-(4-benzamidophenylamino)-N-(2-(4-methylpiperazin-1-yl)ethyl)-6-oxo-5,6-dihydrobenzo[c][1,8]naphthyridine-9-carboxamide]
- IC50: 11 to 100 nM

Structure (SMILES): CC(C(=O)Nc1ccccc1)N1CCC(Nc2ccnc3[nH]c(=O)c4ccccc4c23)CC1 (stereo not shown) [Compound 287, 2-(4-(6-oxo-5,6-dihydrobenzo[c][1,8]naphthyridin-1-ylamino)piperidin-1-yl)-N-phenylpropanamide]
- IC50: > 100 nM

Structure (SMILES): CC(NC(=O)CN1CCC(Nc2ccnc3[nH]c(=O)c4ccccc4c23)CC1)c1ccccc1 (stereo not shown) [Compound 288, 2-(4-(6-Oxo-5,6-dihydrobenzo[c][1,8]naphthyridin-1-ylamino)piperidin-1-yl)-N-(1-phenylethyl)acetamide]
- IC50: > 100 nM

Structure (SMILES): O=C(NCCO)c1ccc2c(=O)[nH]c3nccc(Nc4ccc(NC(=O)c5ccccc5)cc4)c3c2c1 [Compound 289, 1-(4-Benzamidophenylamino)-N-(2-hydroxyethyl)-6-oxo-5,6-dihydrobenzo[c][1,8]naphthyridine-9-carboxamide]
- IC50: 11 to 100 nM

Structure (SMILES): CN1CCN(C(=O)c2ccc3c(=O)[nH]c4nccc(Nc5ccc(NC(=O)c6ccccc6)cc5)c4c3c2)CC1 [Compound 290, N-(4-(9-(4-Methylpiperazine-1-carbonyl)-6-oxo-5,6-dihydrobenzo[c][1,8]naphthyridin-1-ylamino)phenyl)benzamide]
- IC50: 11 to 100 nM

Structure (SMILES): CN1CCN(Cc2ccc3c(=O)[nH]c4nccc(Nc5ccc(NC(=O)c6ccccc6)cc5)c4c3c2)CC1 [Compound 291, N-(4-(9-((4-methylpiperazin-1-yl)methyl)-6-oxo-5,6-dihydrobenzo[c][1,8]naphthyridin-1-ylamino)phenyl)benzamide]
- IC50: < 11 nM

Structure (SMILES): CN(C)CCN(C)Cc1ccc2c(=O)[nH]c3nccc(Nc4ccc(NC(=O)c5ccccc5)cc4)c3c2c1 [Compound 292, N-(4-(9-(((2-(Dimethylamino)ethyl)(methyl)amino)methyl)-6-oxo-5,6-dihydrobenzo[c][1,8]naphthyridin-1-ylamino)phenyl)benzamide]
- IC50: 11 to 100 nM

Structure (SMILES): O=C(Nc1ccc(Nc2ccnc3[nH]c(=O)c4ccc(Cl)cc4c23)cc1)c1ccccc1 [Compound 293, N-(4-(9-Chloro-6-oxo-5,6-dihydrobenzo[c][1,8]naphthyridin-1-ylamino)phenyl)benzamide]
- IC50: < 11 nM
